From patent publication US20220409727A1, “Metal Complexes Bearing Bisstyryl-Bipyridine Ligand and Their Use as Photosensitizer Agent in One and Two-Photon Photodynamic Therapy” (Paris Sciences et Lettres, priority 2019, published 2022)
Like-named read-outs stand apart in the source and are kept apart here.

Assays:
[1] = Emission measurement in CH3CN; assay type: physicochemical; conditions: room temperature, excitation at 355 nm
Description: The absorption of the samples was measured with a SpectraMax M2 Spectrometer (Molecular Devices). The emission was measured by irradiation of the sample in fluorescence quartz cuvettes (width 1 cm) using a NT342B Nd-YAG pumped optical parametric oscillator (Ekspla) at 355 nm. Luminescence was focused and collected at right angle to the excitation pathway and directed to a Princeton Instruments Acton SP-2300i monochromator. As a detector, a XPI-Max 4 CCD camera (Princeton Instruments) has been used.

[2] = Luminescence quantum yield measurements; assay type: physicochemical; parameters: key: fraction, relative to [Ru(bipy)3]Cl2 reference in CH3CN (Φem=5.9%); conditions: CH3CN, room temperature, excitation at 355 nm
Description: For the determination of the luminescence quantum yield, the samples were prepared in an CH3CN solution with an absorbance of 0.1 at 355 nm. This solution was irradiated in fluorescence quartz cuvettes (width 1 cm) using a NT342B Nd-YAG pumped optical parametric oscillator (Ekspla) at 355 nm. The emission signal was focused and collected at right angle to the excitation pathway and directed to a Princeton Instruments Acton SP-2300i monochromator. As a detector a XPI-Max 4 CCD camera (Princeton Instruments) has been used. The luminescence quantum yields were determined by comparison with the reference [Ru(bipy)3]Cl2 in CH3CN (Φem=5.9%) (Nakamaru, K., 1982) applying the following formula:
Φem, sample=Φem, reference*(Freference/Fsample)*(Isample/Ireference)*(nsample/nreference)^2
Φem=luminescence quantum yield, F=fraction of light absorbed, I=integrated emission intensities, n=refractive index, A=absorbance of the sample at irradiation wavelength.

[3] = Luminescence lifetime measurements; assay type: physicochemical; conditions: excitation at 355 nm
Description: For the determination of the lifetimes, the samples were prepared in an air saturated and in a degassed CH3CN solution with an absorbance of 0.2 at 355 nm. This solution was irradiated in fluorescence quartz cuvettes (width 1 cm) using a NT342B Nd-YAG pumped optical parametric oscillator (Ekspla) at 355 nm. The emission signal was focused and collected at right angle to the excitation pathway and directed to a Princeton Instruments Acton SP-2300i monochromator. As a detector a R928 photomultiplier tube (Hamamatsu) has been used.

[4] = Singlet oxygen measurement, direct evaluation (1O2 luminescence at 1270 nm); assay type: physicochemical
Description: The samples were prepared in an air saturated CH3CN or D2O solution with an absorbance of 0.2 at 450 nm. This solution was irradiated in fluorescence quartz cuvettes (width 1 cm) using a mounted M450LP1 LED (Thorlabs) whose irradiation, centered at 450 nm, has been focused with aspheric condenser lenses. The intensity of the irradiation has been varied using a T-Cube LED Driver (Thorlabs) and measured with an optical power and energy meter. The emission signal was focused and collected at right angle to the excitation pathway and directed to a Princeton Instruments Acton SP-2300i monochromator. A longpass glass filter was placed in front of the monochromator entrance slit to cut off light at wavelengths shorter than 850 nm. As a detector an EO-817L IR-sensitive liquid nitrogen cooled germanium diode detector (North Coast Scientific Corp.) has been used. The singlet oxygen luminesce at 1270 nm was measured by recording spectra from 1100 to 1400 nm. For the data analysis, the singlet oxygen luminescence peaks at different irradiation intensities were integrated. The resulting areas were plotted against the percentage of the irradiation intensity and the slope of the linear regression calculated. The absorbance of the sample was corrected with an absorbance correction factor. As reference for the measurement Rose Bengal (Φ=76%) (Kochevar, I. E. and Redmond, R. W., 2000) was used and the singlet oxygen quantum yields were calculated using the following formula:
Φsample=Φreference*(Ssample/Sreference)*(Ireference/Isample)
Φ=singlet oxygen quantum yield, S=slope of the linear regression of the plot of the areas of the singlet oxygen luminescence peaks against the irradiation intensity, I=absorbance correction factor, […] of the irradiation source, A=absorbance of the sample at irradiation wavelength.

[5] = Singlet oxygen measurement, indirect evaluation (RNO absorbance); assay type: physicochemical; conditions: indirect
Description: For the measurement in CH3CN: The samples were prepared in an air-saturated CH3CN solution containing the complex with an absorbance of 0.2 at the irradiation wavelength, N,N-dimethyl-4-nitrosoaniline aniline (RNO, 24 μM) and imidazole (12 mM). For the measurement in PBS buffer: The samples were prepared in an air-saturated PBS solution containing the complex with an absorbance of 0.1 at the irradiation wavelength, N,N-dimethyl-4-nitrosoaniline aniline (RNO, 20 μM) and histidine (10 mM). The samples were irradiated on 96 well plates with an Atlas Photonics LUMOS BIO irradiator for different times. The absorbance of the samples was measured during these time intervals with a SpectraMax M2 Microplate Reader (Molecular Devices). The difference in absorbance (A0−A) at 420 nm for the CH3CN solution or at 440 nm a PBS buffer solution was calculated and plotted against the irradiation times. From the plot the slope of the linear regression was calculated as well as the absorbance correction factor determined. The singlet oxygen quantum yields were calculated using the same formulas as used for the direct evaluation.

[6] = system: human cervical carcinoma (HeLa) cells; assay: (Photo-)cytotoxicity on 2D cell monolayers, resazurin assay, HeLa; assay type: cell-based; conditions: for PI (480 nm): dark vs 480 nm (10 min, 3.1 J/cm^2); for PI (540 nm): dark vs 540 nm (40 min, 9.5 J/cm^2)
Description: Before an experiment, the cells were passaged three times.

[7] = system: mouse colon carcinoma (CT-26) cells
[8] = system: human glioblastoma astrocytoma (U373) cells
Description: (§1) The human glioblastoma astrocytoma (U373) cell line was cultured in MEM medium supplemented with 10% FBS, 1% NEAA (non-essential amino-acids) and 1% penicillin/streptomycin. […] The human retinal epithelial cells (RPE-1, non-cancerous cells immortalized with hTERT) were cultured in DMEM-F12 medium supplemented with 10% FBS and 1% penicillin/streptomycin. All cell lines were obtained from the American Type Culture Collection (ATCC) and cultured at 37° C. and 5% CO2. Before an experiment, the cells were passaged three times.
(§2) The cytotoxicity of the compounds was assessed by measuring cell viability using a fluorometric resazurin assay. The cultivated cells were seeded in triplicates in 96 well plates with a density of 4000 cells per well in 100 μL of media. After 24 h, the medium was removed and the cells were treated with increasing concentrations of the compound diluted in cell media achieving a total volume of 200 μL. The cells were incubated with the compound for 4 h. After this time, the media was removed and replaced with 200 μL of fresh medium. For the phototoxicity studies, the cells were exposed to light with an Atlas Photonics LUMOS BIO irradiator. Each well was constantly illuminated with either a 480 nm or 540 nm irradiation. During this time, the temperature was maintained constantly at 37° C. The cells were grown in the incubator for additional 44 h. For the determination of the dark cytotoxicity, the cells were not irradiated and after the medium exchange directly incubated for 44 h. After this time, the medium was replaced with fresh medium containing resazurin with a final concentration of 0.2 mg/mL. After 4 h incubation, the amount of the fluorescent product resorufin was determined upon excitation at 540 nm and measurement its emission at 590 nm using a SpectraMax M2 Microplate Reader (Molecular Devices).
(§3) The obtained data was analyzed with the GraphPad Prism software.

[9] = system: human glioblastoma astrocytoma (U373) cells; assay: (Photo-)cytotoxicity on 2D cell monolayers, resazurin assay, U373; conditions: for PI (480 nm): U373, dark vs 480 nm (10 min, 3.1 J/cm^2); for PI (540 nm): U373, dark vs 540 nm (40 min, 9.5 J/cm^2); for IC50: compounds 1-3 as chloride salts
Description: as §1, §2, §3

[10] = system: non-cancerous retinal pigment epithelium (RPE-1) cells; assay: (Photo-)cytotoxicity on 2D cell monolayers, resazurin assay, RPE-1; conditions: for PI (480 nm): RPE-1, dark vs 480 nm (10 min, 3.1 J/cm^2); for PI (540 nm): RPE-1, dark vs 540 nm (40 min, 9.5 J/cm^2);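 as to all read-outs here: cells exposed to compound 4 h, medium exchanged, then irradiated or kept dark, 44 h further growth, viability by resorufin fluorescence (ex 540 nm, em 590 nm)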
Description: as §1, §2, §3

[11] = system: mouse colon carcinoma (CT-26) cells; assay: (Photo-)cytotoxicity on 2D cell monolayers, resazurin assay, CT-26; conditions: for PI (480 nm): CT-26, dark vs 480 nm (10 min, 3.1 J/cm^2); for PI (540 nm): CT-26, dark vs 540 nm (40 min, 9.5 J/cm^2); for IC50: compounds 1-3 as chloride salts
[12] = dark, 4 h incubation, compounds 1-3 as chloride salts, read-out: IC50 dark
[13] = read-out: IC50 480 nm (10 min, 3.1 J/cm^2), irradiation 480 nm (10 min, 3.1 J/cm^2), compounds 1-3 as chloride salts
[14] = read-out: IC50 540 nm (40 min, 9.5 J/cm^2), irradiation 540 nm (40 min, 9.5 J/cm^2), compounds 1-3 as chloride salts
[15] = read-out: IC50 480 nm (10 min, 3.1 J/cm^2), U373, irradiation 480 nm (10 min, 3.1 J/cm^2)
[16] = read-out: IC50 dark, U373, dark, 4 h incubation
[17] = read-out: IC50 540 nm (40 min, 9.5 J/cm^2), CT-26, irradiation 540 nm (40 min, 9.5 J/cm^2)
[18] = read-out: IC50 dark, CT-26, dark, 4 h incubation

| Compound | Singlet oxygen quantum yield, direct 450 nm CH3CN [4] | Singlet oxygen quantum yield, indirect 450 nm CH3CN [5] | Singlet oxygen quantum yield, indirect 450 nm PBS [5] | Singlet oxygen quantum yield, indirect 540 nm CH3CN [5] | Singlet oxygen quantum yield, indirect 540 nm PBS [5] | PI (480 nm) [6] | PI (540 nm) [6] | IC50 [6, 12] | IC50 [6, 13] | IC50 [6, 14] | IC50 [7] | IC50 [8] | PI (480 nm) [9] | PI (540 nm) [9] | IC50 [9, 15] | IC50 [9, 16] | PI (480 nm) [10] | PI (540 nm) [10] | IC50 [11, 17] | IC50 [11, 18] | further results |
| --- | --- | --- | --- | --- | --- | --- | --- | --- | --- | --- | --- | --- | --- | --- | --- | --- | --- | --- | --- | --- | --- |
| C(=C\c1ccnc(-c2cc(/C=C/c3ccccc3)ccn2)c1)/c1ccccc1.C(=C\c1ccnc(-c2cc(/C=C/c3ccccc3)ccn2)c1)/c1ccccc1.C(=C\c1ccnc(-c2cc(/C=C/c3ccccc3)ccn2)c1)/c1ccccc1.F[P-](F)(F)(F)(F)F.F[P-](F)(F)(F)(F)F.[Ru+2] [Compound 1] | 65% | 66% | 5% | 61% | 3% | >3.4 | >2.1 | > 100 µM | 29.5 ± 1.2 µM | 48.7 ± 4.5 µM | 20.3 ± 1.8 µM | 83.1 ± 6.7 µM | >1.9 | >1.2 | 51.7 ± 3.2 µM | > 100 µM | >3.2 | >3.2 | 33.4 ± 3.5 µM | > 100 µM | λem/nm (Emission maximum) [1]: 677 nm; ϕem (Luminescence Quantum Yield) [2]: 0.019; τ/ns air (Lifetime) ([3]; air saturated CH3CN): 86 ns; τ/ns degassed (Lifetime) ([3]; degassed CH3CN): 385 ns; PI (480 nm) [11]: >4.9; PI (540 nm) [11]: >3.0 |
| F[P-](F)(F)(F)(F)F.F[P-](F)(F)(F)(F)F.[Ru+2].c1cnc2c(c1)ccc1cccnc12.c1cnc2c(c1)ccc1cccnc12.c1cnc2c(c1)ccc1cccnc12 [[Ru(1,10-phenanthroline)3][PF6]2, reference compound] | 25% | 23% | 2% | 22% | 2% |  |  | > 100 µM | > 100 µM | > 100 µM | > 100 µM | > 100 µM |  |  | > 100 µM | > 100 µM |  |  | > 100 µM | > 100 µM |  |
| [Ru(4,7-Diphenyl-1,10-phenanthroline)3][PF6]2 [reference compound] | 44% | 47% | 4% | 45% | 3% | 12.1 | 7.7 | 8.5 ± 0.4 µM | 0.7 ± 0.2 µM | 1.1 ± 0.2 µM | 0.4 ± 0.2 µM | 1.2 ± 0.3 µM | 7.8 | 8.4 | 1.3 ± 0.2 µM | 10.1 ± 0.7 µM | 13.4 | 10.1 | 0.5 ± 0.2 µM | 2.8 ± 0.5 µM | PI (480 nm) [11]: 7.0; PI (540 nm) [11]: 5.6 |
